Data taken from US12264134B2 (Merck Sharp & Dohme LLC, priority 2018, dated 2025).

Molecular target: IDO1 (Homo sapiens, UniProt P14902)
Experiment: IDO1 Cellular Assay in HeLa Cells Stimulated with IFNγ
Format: cell-based
Conditions: read-out: HeLa Cell Potency, IC50

IDO1, sequence (P14902 whole entry): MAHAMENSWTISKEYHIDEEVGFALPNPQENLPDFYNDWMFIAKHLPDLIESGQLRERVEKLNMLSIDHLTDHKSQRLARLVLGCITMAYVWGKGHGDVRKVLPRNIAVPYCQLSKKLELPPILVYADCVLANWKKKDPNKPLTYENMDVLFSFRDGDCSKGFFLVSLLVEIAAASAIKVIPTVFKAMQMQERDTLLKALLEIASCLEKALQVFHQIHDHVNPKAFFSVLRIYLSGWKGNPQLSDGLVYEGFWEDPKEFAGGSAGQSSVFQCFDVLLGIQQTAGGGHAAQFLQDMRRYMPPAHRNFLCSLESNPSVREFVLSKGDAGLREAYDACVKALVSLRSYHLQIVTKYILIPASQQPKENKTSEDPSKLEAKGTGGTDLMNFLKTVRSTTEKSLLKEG

| SMILES | IC50 [nM] |
| --- | --- |
| Cc1cccc(N2CCN(C(=O)Cn3nc(C(=O)N4CCC(N5CCCC5)CC4)c4c3CCC4)CC2)c1C [Example 164] | 68.9 |
| COc1c(F)cc(N2CCN(C(=O)Cn3nc(C(=O)N4C[C@@H](C)O[C@@H](C)C4)c4c3CCC4)CC2)cc1F [Example 27, 1-[4-(3,5-difluoro-4-methoxyphenyl)piperazin-1-yl]-2-{3-[(2R,6S)-2,6-dimethylmorpholine-4-carbonyl]-5,6-dihydrocyclopenta[c]pyrazol-1(4H)-yl}ethan-1-one] | 110 |
| Cc1cccc(N2CCN(C(=O)Cn3nc(C(=O)N4CC[C@H](N5CCC(O)CC5)[C@H](F)C4)c4c3CC(F)(F)CC4)CC2)c1C (stereo in doubt) [Example 23, 2-[6,6-difluoro-3-[rac-(3R,4S)-3-fluoro-4-(4-hydroxy-1-piperidyl)piperidine-1-carbonyl]-5,7-dihydro-4H-indazol-1-yl]-1-[4-(2,3-dimethylphenyl)piperazin-1-yl]ethanone] | 77.5 |
| Cc1ccc(F)cc1N1CCN(C(=O)Cn2nc(C(=O)N3C[C@@H](C)O[C@@H](C)C3)c3c2CCC3)CC1 [Example 75, 2-{3-[(2R,6S)-2,6-dimethylmorpholine-4-carbonyl]-5,6-dihydrocyclopenta[c]pyrazol-1(4H)-yl}-1-[4-(5-fluoro-2-methylphenyl)piperazin-1-yl]ethan-1-one] | 34.1 |
| Cc1cccc(N2CCN(C(=O)Cn3nc(C(=O)N4C[C@@H](C)O[C@@H](C)C4)c4c3CCC(C(F)(F)F)C4)CC2)c1C (stereo partly drawn) [Example 303, 2-{3-[(2R,6S)-2,6-dimethylmorpholine-4-carbonyl]-5-(trifluoromethyl)-4,5,6,7-tetrahydro-1H-indazol-1-yl}-1-[4-(2,3-dimethylphenyl)piperazin-1-yl]ethan-1-one] | 29.9 |
| Cc1cccc(N2CCN(C(=O)Cn3nc(C(=O)N4C[C@@H](O)[C@@H](O)C4)c4c3CCC4)CC2)c1C [Example 308, 2-{3-[(3R,4S)-3,4-dihydroxypyrrolidine-1-carbonyl]-5,6-dihydrocyclopenta[c]pyrazol-1(4H)-yl}-1-[4-(2,3-dimethylphenyl)piperazin-1-yl]ethan-1-one] | 400 |
| Cc1cccc(N2CCN(C(=O)Cn3nc(C(=O)N4CC[C@@H](O)[C@@H](F)C4)c4c3C(O)CC4)CC2)c1C (single isomer, unassigned) [Example 423] | 195 |
| Cc1c(F)cccc1N1CCN(C(=O)Cn2nc(C(=O)N3CCC(O)CC3)c3c2CCC3)CC1 [Example 483, 1-(4-(3-fluoro-2-methylphenyl)piperazin-1-yl)-2-(3-(4-hydroxypiperidine-1-carbonyl)-5,6-dihydrocyclopenta[c]pyrazol-1(4H)-yl) ethanone] | 41.6 |
| O=C(Cn1nc(C(=O)N2CC[C@H](O)[C@@H](F)C2)c2c1CCC2)N1CCN(C2CCCc3ccccc32)CC1 (stereo partly drawn) [Example 434, 2-(3-((3S,4S)-3-fluoro-4-hydroxypiperidine-1-carbonyl)-5,6-dihydrocyclopenta[c]pyrazol-1(4H)-yl)-1-(4-(1,2,3,4-tetrahydronaphalen-1-yl)piperazin-1-yl)ethanone] | 8050 |
| Cc1cccc(N2CCN(C(=O)Cn3nc(C(=O)N4CC[C@H](O)[C@H](F)C4)c4c3C[C@@H]3C[C@H]43)CC2)c1C [Example 307, 1-[4-(2,3-dimethylphenyl)piperazin-1-yl]-2-{(3bS,4aS)-3-[(3R,4S)-3-fluoro-4-hydroxypiperidine-1-carbonyl]-3b,4,4a,5-tetrahydro-1H-cyclopropa[3,4]cyclopenta[1,2-c]pyrazol-1-yl}ethan-1-one] | 71.4 |
| O=C(Cn1nc(C(=O)N2CCC(O)(CF)CC2)c2c1CCC2)N1CCN(c2cccc3c(F)cccc23)CC1 [Example 444, 2-(3-(4-(fluoromethyl)-4-hydroxypiperidine-1-carbonyl)-5,6-dihydrocyclopenta[c]pyrazol-1(4H)-yl)-1-(4-(5-fluoronaphthalen-1-yl)piperazin-1-yl)ethan-1-one] | 298 |
| O=C(Cn1nc(C(=O)N2CCC(O)CC2)c2c1CCC2)N1CCN(C2CCc3ccccc32)CC1 (single isomer, unassigned) [Example 436, 1-(4-(2,3-dihydro-1H-inden-1-yl)piperazin-1-yl)-2-(3-(4-hydroxypiperidine-1-carbonyl)-5,6-dihydrocyclopenta[c]pyrazol-1(4H)-yl)ethanone] | 22.8 |

Second part, the compound after the results:

| IC50 [nM] | SMILES |
| --- | --- |
| 1.53 | Cc1cccc(N2CCN(C(=O)Cn3nc(C(=O)N4CCC(C)(C(N)=O)CC4)c4c3C[C@H]3C[C@@H]43)CC2)c1C [Example 220, 1-[(3bR,4aR)-1-{2-[4-(2,3-dimethylphenyl)piperazin-1-yl]-2-oxoethyl}-3b,4,4a,5-tetrahydro-1H-cyclopropa[3,4]cyclopenta[1,2-c]pyrazole-3-carbonyl]-4-methylpiperidine-4-carboxamide] |
| 1.58 | Cc1cccc(N2CCN(C(=O)Cn3nc(C(=O)N4CCC(C(C)(C)O)CC4)c4c3CCC4)CC2)c1C [Example 144, 1-[4-(2,3-dimethylphenyl)piperazin-1-yl]-2-{3-[4-(2-hydroxypropan-2-yl)piperidine-1-carbonyl]-5,6-dihydrocyclopenta[c]pyrazol-1(4H)-yl}ethan-1-one] |
| 22.4 | Cc1cccc(N2CCN(C(=O)Cn3nc(C(=O)N4CCN(C(=O)[C@H](C)O)CC4)c4c3CCC4)CC2)c1C [Example 397, (S)-1-(4-(1-(2-(4-(2,3-dimethylphenyl)piperazin-1-yl)-2-oxoethyl)-1,4,5,6-tetrahydrocyclopenta[c]pyrazole-3-carbonyl)piperazin-1-yl)-2-hydroxypropan-1-one] |
| 4.38 | Cc1cccc(N2CCN(C(=O)Cn3nc(C(=O)N4CCC(F)(CO)CC4)c4c3CCC4)CC2)c1C [Example 102, 1-[4-(2,3-dimethylphenyl)piperazin-1-yl]-2-{3-[4-fluoro-4-(hydroxymethyl)piperidine-1-carbonyl]-5,6-dihydrocyclopenta[c]pyrazol-1(4H)-yl}ethan-1-one] |
| 4.77 | Cc1cccc(N2CCN(C(=O)Cn3nc(C(=O)N4CCC5(CC4)CNC(=O)CO5)c4c3C[C@H]3C[C@@H]43)CC2)c1C [Example 244, 9-[(3bR,4aR)-1-{2-[4-(2,3-dimethylphenyl)piperazin-1-yl]-2-oxoethyl}-3b,4,4a,5-tetrahydro-1H-cyclopropa[3,4]cyclopenta[1,2-c]pyrazole-3-carbonyl]-1-oxa-4,9-diazaspiro[5.5]undecan-3-one] |
| 12.9 | Cc1cccc(N2CCN(C(=O)Cn3nc(C(=O)N4CCN(C(=O)CO)C[C@@H]4C)c4c3CCC4)CC2)c1C [Example 401, (S)-1-(4-(2,3-dimethylphenyl)piperazin-1-yl)-2-(3-(4-(2-hydroxyacetyl)-2-methylpiperazine-1-carbonyl)-5,6-dihydrocyclopenta[c]pyrazol-1(4H)-yl)ethanone] |
| 5.17 | Cc1c(Cl)cccc1N1CCN(C(=O)Cn2nc(C(=O)N3CC[C@H](O)[C@H](F)C3)c3c2CCC(F)C3)CC1 (stereo partly drawn) [Example 374, 1-(4-(3-chloro-2-methylphenyl)piperazin-1-yl)-2-(5-fluoro-3-((3R,4S)-3-fluoro-4-hydroxypiperidine-1-carbonyl)-4,5,6,7-tetrahydro-1H-indazol-1-yl)ethan-1-one] |
| 1.19 | Cc1cccc(N2CCN(C(=O)Cn3nc(C(=O)N4CC[C@@H](O)[C@@H](F)C4)c4c3C[C@H]3C[C@@H]43)C3(CC3)C2)c1C [Example 365, 1-(7-(2,3-dimethylphenyl)-4,7-diazapspiro[2.5]octan-4-yl)-2-((3bR,4aR)-3-((3S,4R)-3-fluoro-4-hydroxypiperidine-1-carbonyl)-3b,4,4a,5-tetrahydro-1H-cyclopropa[3,4]cyclopenta[1,2-c]pyrazol-1-yl)ethanone] |
| 12.1 | C[C@@H]1CN(C(=O)c2nn(CC(=O)N3CCN(c4cccc(Cl)c4Cl)CC3)c3c2CCC3)C[C@H](C)O1 [Example 69, 1-[4-(2,3-dichlorophenyl)piperazin-1-yl]-2-{3-[(2R,6S)-2,6-dimethylmorpholine-4-carbonyl]-5,6-dihydrocyclopenta[c]pyrazol-1(4H)-yl}ethan-1-one] |
| 21.2 | CNC(=O)C1CCN(C(=O)c2nn(CC(=O)N3CCN(c4cccc(C)c4C)CC3)c3c2CCC3)CC1 [Example 136, 1-(1-{2-[4-(2,3-dimethylphenyl)piperazin-1-yl]-2-oxoethyl}-1,4,5,6-tetrahydrocyclopenta[c]pyrazole-3-carbonyl)-N-methylpiperidine-4-carboxamide] |
| 3.66 | Cc1cccc(N2CCN(C(=O)Cn3nc(C(=O)N4CCCCC4C(C)(C)O)c4c3C[C@H]3C[C@@H]43)CC2)c1C (stereo partly drawn) [Example 271, 1-[4-(2,3-dimethylphenyl)piperazin-1-yl]-2-{(3bR,4aR)-3-[2-(2-hydroxypropan-2-yl)piperidine-1-carbonyl]-3b,4,4a,5-tetrahydro-1H-cyclopropa[3,4]cyclopenta[1,2-c]pyrazol-1-yl}ethan-1-one] |
| 3.01 | Cc1cccc(N2CCN(C(=O)Cn3nc(C(=O)N4CCC(O)C(F)C4)c4c3C[C@H]3C[C@@H]43)C3(CC3)C2)c1C (stereo in doubt) [Example 361, 1-(7-(2,3-dimethylphenyl)-4,7-diazaspiro[2.5]octan-4-yl)-2-((3bR,4aR)-3-((3S,4S)-3-fluoro-4-hydroxypiperidine-1-carbonyl)-3b,4,4a,5-tetrahydro-1H-cyclopropa[3,4]cyclopenta[1,2-c]pyrazol-1-yl)ethanone] |
| 14.3 | Cc1cccc(N2CCN(C(=O)Cn3nc(C(=O)N4CC[C@@H](O)[C@@H](F)C4)c4c3C[C@@H]3C[C@H]43)CC2)c1C [Example 298, 1-[4-(2,3-dimethylphenyl)piperazin-1-yl]-2-{(3bS,4aS)-3-[(3S,4R)-3-fluoro-4-hydroxypiperidine-1-carbonyl]-3b,4,4a,5-tetrahydro-1H-cyclopropa[3,4]cyclopenta[1,2-c]pyrazol-1-yl}ethan-1-one] |
| 2.92 | Cc1cccc(N2CCN(C(=O)Cn3nc(C(=O)N4CCN5CCCC[C@H]5C4)c4c3CCC4)CC2)c1C [Example 191, 1-[4-(2,3-dimethylphenyl)piperazin-1-yl]-2-{3-[(9aS)-octahydro-2H-pyrido[1,2-a]pyrazine-2-carbonyl]-5,6-dihydrocyclopenta[c]pyrazol-1(4H)-yl}ethan-1-one] |
